Ten compounds from patent US20250002475A1 (EPICS THERAPEUTICS, priority 2023, published 2025) can be followed below.

The IC50 is the concentration that gives 50% inhibition.

Structures are written as SMILES.

In test [1] the target is T1, recombinant METTL3/METTL14 complex (Homo sapiens, UniProt Q86U44).
T1 construct: purchased Active Motif 311970; host or cells: Sf9 cells
The experiment in a line: METTL3/14 Scintillation Proximity Assay (SPA), RNA methyltransferase activity. Format: biochemical. As to conditions: 5.31 nM METTL3/14 complex, 250 nM RNA substrate, 1 μM 3H-SAM, 90 min; for compounds marked * best of the two separated forms. (In general: In a scintillation proximity assay essentially only radioactivity close to the scintillant gives light.)

The next test relates to Caov-3 cells. Description: Caov-3 cellular viability assay (ATP-Lite, 72 h). Format: cell-based. As to conditions: Homo sapiens, ATP-Lite luminescence, % viability relative to DMSO. The procedure, abridged: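 10000 cells/well treated 72 h at 37 °C, 5% CO2, in RPMI-1640 with 10% FBS and 0.1% DMSO final. Viability by ATP-Lite One Step luminescence. Expressed as % of DMSO control, with IC50 from each compound's concentration-response curve.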

In a further test the test system is Kasumi-1 cells. The experiment in a line: Kasumi-1 cellular viability assay (ATP-Lite, 72 h). Format: cell-based. The note with it: Homo sapiens, ATP-Lite luminescence, % viability relative to DMSO. The procedure, abridged:
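Kasumi-1 AML cells, 15000/well in RPMI-1640 with 10% FBS, were exposed to compound titrations (0.1% final DMSO) for 72 h at 37 °C, 5% CO2. ATP-Lite One Step luminescence gave % viability versus DMSO control, and IC50 came from the concentration-response.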

T1 sequence (Q86U44 whole entry): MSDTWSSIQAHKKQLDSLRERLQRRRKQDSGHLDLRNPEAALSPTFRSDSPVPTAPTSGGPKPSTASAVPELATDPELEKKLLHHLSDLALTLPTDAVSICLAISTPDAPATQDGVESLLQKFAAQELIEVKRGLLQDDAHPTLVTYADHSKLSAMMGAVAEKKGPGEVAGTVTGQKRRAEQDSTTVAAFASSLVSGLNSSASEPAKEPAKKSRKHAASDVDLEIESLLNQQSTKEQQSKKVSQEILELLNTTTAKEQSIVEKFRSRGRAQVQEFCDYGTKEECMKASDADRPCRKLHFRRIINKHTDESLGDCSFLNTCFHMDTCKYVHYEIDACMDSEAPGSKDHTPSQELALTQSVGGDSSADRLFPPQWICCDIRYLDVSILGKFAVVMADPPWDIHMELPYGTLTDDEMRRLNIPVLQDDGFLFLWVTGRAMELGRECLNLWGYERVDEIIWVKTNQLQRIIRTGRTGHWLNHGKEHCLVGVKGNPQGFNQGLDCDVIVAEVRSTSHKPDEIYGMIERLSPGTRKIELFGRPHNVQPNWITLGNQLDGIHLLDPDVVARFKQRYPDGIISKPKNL
T1 sequence (Q9HCE5 whole entry partner): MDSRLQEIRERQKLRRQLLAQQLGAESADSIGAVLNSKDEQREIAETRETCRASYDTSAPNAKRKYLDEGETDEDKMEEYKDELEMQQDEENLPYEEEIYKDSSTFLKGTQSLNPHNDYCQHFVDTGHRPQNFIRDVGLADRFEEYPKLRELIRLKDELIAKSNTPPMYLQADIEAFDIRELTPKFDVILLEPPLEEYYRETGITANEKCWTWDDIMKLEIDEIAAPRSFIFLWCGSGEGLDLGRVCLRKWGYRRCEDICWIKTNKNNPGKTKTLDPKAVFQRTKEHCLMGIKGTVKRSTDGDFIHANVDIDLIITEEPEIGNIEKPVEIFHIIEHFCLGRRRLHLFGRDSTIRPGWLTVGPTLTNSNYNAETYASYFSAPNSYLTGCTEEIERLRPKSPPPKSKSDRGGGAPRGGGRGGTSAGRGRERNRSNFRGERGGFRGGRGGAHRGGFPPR

Regarding `COc1cc(-c2cn(Cc3ccc(N4CCC[C@@H](NCC(C)C)C4)nn3)nn2)c2cn[nH]c2c1` [Compound 031, (R)-N-isobutyl-1-(6-((4-(6-methoxy-1H-indazol-4-yl)-1H-1,2,3-triazol-1-yl)methyl)pyridazin-3-yl)piperidin-3-amine], the IC50 in test [1] was at most 50 nM; in the test with Caov-3 cells it was 500 to 5000 nM; with Kasumi-1 cells it was 500 to 5000 nM.

Consider `CC(n1cc(-c2cncc(N3CC[C@H](F)C3)n2)nn1)n1ccc(N2CCC[C@@H](NCC3CC3)C2)cc1=O` (single isomer, unassigned) [Compound 241], for which the results for the IC50 (in test [1]; with Caov-3 cells; with Kasumi-1 cells) were at most 50 nM, at most 500 nM and at most 500 nM, respectively.

Consider `O=C(Nc1cc(=O)n2ccccc2n1)C1(c2ccc(N3CCC[C@@H](NCC4CC4)C3)nc2)COC1` [Compound 321, (R)-3-(6-(3-((cyclopropylmethyl)amino)piperidin-1-yl)pyridin-3-yl)-N-(4-oxo-4H-pyrido[1,2-a]pyrimidin-2-yl)oxetane-3-carboxamide], for which the IC50 in test [1] is at most 50 nM; with Caov-3 cells, 500 to 5000 nM; in the test with Kasumi-1 cells, 500 to 5000 nM.

Turning to `c1cc(C2(c3nnc(-c4cncc(N5CCCC5)n4)s3)COC2)ncc1N1CCC[C@@H](NCC2CC2)C1` [Compound 369, (R)-N-(cyclopropylmethyl)-1-(6-(3-(5-(6-(pyrrolidin-1-yl)pyrazin-2-yl)-1,3,4-thiadiazol-2-yl)oxetan-3-yl)pyridin-3-yl)piperidin-3-amine], the IC50 in test [1] was at most 50 nM; in the test with Caov-3 cells, at most 500 nM; in the test with Kasumi-1 cells it was at most 500 nM.

Turning to `COc1cncc(-c2cn(C3(c4ccc(N5CCC[C@@H](NCC6CCC6)C5)cn4)COC3)cn2)c1` [Compound 267, (R)-N-(cyclobutylmethyl)-1-(6-(3-(4-(5-methoxypyridin-3-yl)-1H-imidazol-1-yl)oxetan-3-yl)pyridin-3-yl)piperidin-3-amine], the figures for the IC50 (in test [1]; with Caov-3 cells; in the test on Kasumi-1 cells) were at most 50 nM, 500 to 5000 nM and 500 to 5000 nM, respectively.

On to `O=C(Nc1cc(=O)n2ccccc2n1)C1(c2ccc(N3CCC[C@@H](NCC4(C(F)(F)F)CCC4)C3)cn2)COC1` [Compound 337, (R)-N-(4-oxo-4H-pyrido[1,2-a]pyrimidin-2-yl)-3-(5-(3-(((1-(trifluoromethyl)cyclobutyl)methyl)amino)piperidin-1-yl)pyridin-2-yl)oxetane-3-carboxamide], for which the values for the half-inhibitory concentration (IC50) (in test [1]; in the test with Caov-3 cells; in the test with Kasumi-1 cells) were at most 50 nM, at most 500 nM and 500 to 5000 nM, respectively.

In the case of `CC(c1cnn(-c2cc(N3CCCC3)cnn2)c1)n1ccc(N2CCC[C@@H](NCC3CC3)C2)cc1=O` (single isomer, unassigned) [Compound 219], the IC50 in test [1] is at most 50 nM; with Caov-3 cells, at most 500 nM; in the test on Kasumi-1 cells, 500 to 5000 nM.

As to `C[C@@H]1CCN(c2cncc(-c3cn(C4(c5ccc(N6CCC[C@@H](NCC7CC7)C6)cn5)COC4)nn3)n2)C1` [Compound 244, (R)-N-(cyclopropylmethyl)-1-(6-(3-(4-(6-((R)-3-methylpyrrolidin-1-yl)pyrazin-2-yl)-1H-1,2,3-triazol-1-yl)oxetan-3-yl)pyridin-3-yl)piperidin-3-amine], the IC50 in test [1] is at most 50 nM; in the test with Caov-3 cells, at most 500 nM; in the test on Kasumi-1 cells, at most 500 nM.

With `O=C(Nc1cncc(N2CCCC2)n1)C1(c2ccc(N3CCC[C@@H](NCC4CC4)C3)cn2)COC1` [Compound 248, (R)-3-(5-(3-((cyclopropylmethyl)amino)piperidin-1-yl)pyridin-2-yl)-N-(6-(pyrrolidin-1-yl)pyrazin-2-yl)oxetane-3-carboxamide], the values for the half-inhibitory concentration (IC50) (in test [1]; in the test on Caov-3 cells; in the test on Kasumi-1 cells) were at most 50 nM, at most 500 nM and at most 500 nM, respectively.

For `COC1CN(c2cncc(-c3cn(C(C)n4ccc(N5CCC[C@@H](NCC6CC6)C5)cc4=O)nn3)n2)C1` (single isomer, unassigned) [Compound 246], the 50% inhibitory concentration (IC50) in test [1] was at most 50 nM; in the test with Caov-3 cells, at most 500 nM; in the test with Kasumi-1 cells, at most 500 nM.
